Results as given in patent US11066414B2, “Cot modulators and methods of use thereof” (Gilead Sciences, Inc., priority 2015, dated 2021).
Read-outs that look alike come from different tables or passages of the source.

Key:
TNFα = assay: Cot Monocyte TNFα Cell Based Assay
Human Cot = Human Cot (Homo sapiens (Human), UniProt P41279); assay: High Throughput Cot Biochemical Assay
[1] = Homo sapiens, Monocyte, read-out: EC50 TNF, LPS-stimulated human monocytes, TNFα
[2] = IC50 HTRF, Cot HTRF (TR-FRET) biochemical assay
[3] = read-out: EC50 TNF, LPS-stimulated human monocytes, TNFα TR-FRET
[4] = read-out: IC50 HTRF, Cot HTRF (TR-FRET KinEASE) biochemical assay, 400 μM ATP

Chain of Human Cot (P41279 30-397): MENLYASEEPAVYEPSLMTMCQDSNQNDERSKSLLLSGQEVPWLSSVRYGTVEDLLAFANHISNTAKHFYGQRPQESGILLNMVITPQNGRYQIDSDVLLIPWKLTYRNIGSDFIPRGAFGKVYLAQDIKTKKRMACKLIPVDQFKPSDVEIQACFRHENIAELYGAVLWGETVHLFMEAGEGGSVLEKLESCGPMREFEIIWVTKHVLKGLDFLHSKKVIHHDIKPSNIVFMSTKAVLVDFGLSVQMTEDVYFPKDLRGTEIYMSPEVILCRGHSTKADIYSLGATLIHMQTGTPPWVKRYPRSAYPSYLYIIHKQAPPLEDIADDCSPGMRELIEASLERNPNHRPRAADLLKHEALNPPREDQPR

With `CC(C)(C)CNc1c(C#N)cnc2c(Cl)cc(N[C@H](c3cn(C4CC4)nn3)c3cccc4ncsc34)cc12` [Example 418, (S)-6-((benzo[d]thiazol-7-yl(1-cyclopropyl-1H-1,2,3-triazol-4-yl)methyl)amino)-8-chloro-4-(neopentylamino)quinoline-3-carbonitrile] the EC50 (TNFα; [1]) was 45 nM and the IC50 (Human Cot; [2]) was 2 nM.

In the case of `CCN1CCC(n2cc([C@@H](Nc3cc(Cl)c4ncc(C#N)c(Nc5ccc(F)c(Cl)c5)c4c3)c3sccc3Cl)nn2)CC1` [Example 389, (R)-8-chloro-4-((3-chloro-4-fluoro-phenyl)amino)-6-(((3-chlorothiophen-2-yl)(1-(1-ethylpiperidin-4-yl)-1H-1,2,3-triazol-4-yl)methyl)amino)-quinoline-3-carbonitrile], the EC50 (TNFα; [1]) is reported as 328 nM and the IC50 (Human Cot; [2]) is reported as 11 nM.

`Cn1ccc2c([C@H](Nc3cc(C#N)c4ncc(C#N)c(NCC(C)(C)C)c4c3)c3cn(C4(C(F)(F)F)CC4)nn3)cccc2c1=O` [Example 631, (S)-6-(((2-methyl-1-oxo-1,2-dihydroisoquinolin-5-yl)(1-(1-(trifluoromethyl)-cyclopropyl)-1H-1,2,3-triazol-4-yl)methyl)amino)-4-(neopentylamino)quinoline-3,8-dicarbonitrile] was tested, and the EC50 (TNFα; [1]) was 32 nM and the IC50 (Human Cot; [2]) was 2 nM.

`Cc1c([C@H](Nc2cc(Cl)c3ncc(C#N)c(NCC(C)(C)C)c3c2)c2cn(C3(C(F)(F)F)CC3)nn2)ccnc1Cl` [Example 938, (S)-8-chloro-6-(((2-chloro-3-methylpyridin-4-yl)(1-(1-(trifluoromethyl)cyclopropyl)-1H-1,2,3-triazol-4-yl)methyl)amino)-4-(neopentylamino)quinoline-3-carbonitrile] showed an EC50 (TNFα; Homo sapiens, Monocyte, read-out: EC50 TNF, LPS-stimulated human monocytes, TNFα TR-FRET) of 223 nM and an IC50 (Human Cot; IC50 HTRF, Cot HTRF (TR-FRET KinEASE) biochemical assay, 400 μM ATP) of 26 nM.

With `CC(C)(C)CNc1c(C#N)cnc2c(Cl)cc(N[C@H](c3cn(C4(C(F)(F)F)CC4)nn3)c3cccn4nccc34)cc12` [Example 560, (S)-8-chloro-4-(neopentylamino)-6-((pyrazolo[1,5-a]pyridin-4-yl(1-(1-(trifluoromethyl)cyclopropyl)-1H-1,2,3-triazol-4-yl)methyl)amino)quinoline-3-carbonitrile] the EC50 (TNFα; [1]) was 287 nM and the IC50 (Human Cot; [2]) was 11 nM.

Compound `Cc1cncc([C@H](Nc2cc(Cl)c3ncc(C#N)c(Nc4ccc(F)c(Cl)c4)c3c2)c2cn(C3CCN(C(C)(C)C)CC3)nn2)c1` [Example 250, (S)-6-(((1-(1-(tert-butyl)piperidin-4-yl)-1H-1,2,3-triazol-4-yl)(5-methylpyridin-3-yl)methyl)amino)-8-chloro-4-((3-chloro-4-fluorophenyl)amino)quinoline-3-carbonitrile] has an EC50 (TNFα; [1]) of 127 nM and an IC50 (Human Cot; [2]) of 5 nM.

`Cc1ncccc1[C@H](Nc1cc(Cl)c2ncc(C#N)c(Nc3cccc(Cl)c3F)c2c1)c1c[nH]nn1` [Example 248, (S)-8-chloro-4-((3-chloro-2-fluorophenyl)amino)-6-(((2-methylpyridin-3-yl)(1H-1,2,3-triazol-4-yl)methyl)amino)-quinoline-3-carbonitrile] gave an EC50 (TNFα; [1]) of 398 nM and an IC50 (Human Cot; [2]) of 4 nM.

In the case of `COc1nccc2c([C@H](Nc3cc(Cl)c4ncc(C#N)c(NCC(C)(C)C)c4c3)c3nnn(C4(C(F)F)CC4)c3F)cccc12` [Example 923, (S)-8-chloro-6-(((1-(1-(difluoromethyl)cyclopropyl)-5-fluoro-1H-1,2,3-triazol-4-yl)(1-methoxylsoquinolin-5-yl)methyl)amino)-4-(neopentylamino)quinoline-3-carbonitrile], the EC50 (TNFα; [3]) is reported as 258 nM and the IC50 (Human Cot; [4]) is reported as 16 nM.

In the case of `Cc1ccc([C@H](Nc2cc(Cl)c3ncc(C#N)c(Nc4ccc(F)c(Cl)c4)c3c2)c2c[nH]nn2)cn1` [Example 271, (S)-8-chloro-4-((3-chloro-4-fluorophenyl)amino)-6-(((6-methylpyridin-3-yl)(1H-1,2,3-triazol-4-yl)methyl)amino)quinoline-3-carbonitrile], the EC50 (TNFα; [1]) is reported as 826 nM and the IC50 (Human Cot; [2]) is reported as 9 nM.

`CC(C)(C)CNc1c(C#N)cnc2c(C#N)cc(N[C@H](c3cn(C4(C)CC4)nn3)c3cccc4ncsc34)cc12` [Example 435, (S)-6-((benzo[d]thiazol-7-yl(1-(1-methylcyclopropyl)-1H-1,2,3-triazol-4-yl)methyl)amino)-4-(neopentylamino)-quinoline-3,8-dicarbonitrile] showed an EC50 (TNFα; [1]) of 24 nM and an IC50 (Human Cot; [2]) of 1 nM.

Compound `N#Cc1cnc2c(Cl)cc(N[C@H](c3c[nH]nn3)c3cncs3)cc2c1Nc1ccc(F)c(Cl)c1` [Example 277, (R)-B-chloro-4-((3-chloro-4-fluorophenyl)amino)-6-((thiazol-5-yl(1H-1,2,3-triazol-4-yl)methyl)amino)quinoline-3-carbonitrile] has an EC50 (TNFα; read-out: EC50 TNF, LPS-stimulated human monocytes, TNFα) of 923 nM and an IC50 (Human Cot; read-out: IC50 HTRF, Cot HTRF (TR-FRET) biochemical assay) of 7 nM.

`[2H]C(Nc1cc(Cl)c2ncc(C#N)c(NCC(C)(C)C)c2c1)(c1cn(C2CC2)nn1)c1ccc(F)nc1F` (stereo not drawn) [Example 103, 8-chloro-6-(((1-cyclopropyl-1H-1,2,3-triazol-4-yl)(2,6-difluoropyridin-3-yl)methyl-d)amino)-4-(neopentylamino)quinoline-3-carbonitrile] gave an EC50 (TNFα; [1]) of 133 nM and an IC50 (Human Cot; [2]) of 3 nM.

Compound `Cn1ccc2c([C@H](Nc3cc(C#N)c4ncc(C#N)c(NCC(C)(C)C)c4c3)c3cn(C4(C5CC5)CC4)nn3)cccc2c1=O` [Example 881, (S)-6-(((4-(1-(1-bi(cyclopropan)]-1-yl)-1H-1,2,3-triazol-4-yl)(2-methyl-1-oxo-1,2-dihydroisoquinolin-5-yl)methyl)amino)-4-(neopentylamino)quinoline-3,8-dicarbonitrile] has an EC50 (TNFα; [3]) of 13 nM and an IC50 (Human Cot; [4]) of 2 nM.

`[2H]C(Nc1cc(Cl)c2ncc(C#N)c(N[C@H](CC)c3ccccc3)c2c1)(c1cn(C2CC2)nn1)c1cc(C#N)cs1` (stereo partly drawn) [Example 123, 8-chloro-6-(((4-cyanothiophen-2-yl)(1-cyclopropyl-1H-1,2,3-triazol-4-yl)methyl-d)amino)-4-(((R)-1-phenylpropyl)amino)quinoline-3-carbonitrile] was tested, and the EC50 (TNFα; [1]) was 193 nM and the IC50 (Human Cot; [2]) was 6 nM.

Compound `Cc1ncccc1[C@H](Nc1cc(Cl)c2ncc(C#N)c(Nc3ccc(Cl)c(Cl)c3F)c2c1)c1cn(C2CCN(C(C)(C)C)CC2)nn1` [Example 233, (S)-6-(((1-(1-(tert-butyl)piperidin-4-yl)-1H-1,2,3-triazol-4-yl)(2-methylpyridin-3-yl)methyl)amino)-8-chloro-4-((3,4-dichloro-2-fluorophenyl)amino)quinoline-3-carbonitrile] has an EC50 (TNFα; [1]) of 114 nM and an IC50 (Human Cot; [2]) of 8 nM.

`CC(C)(C)CNc1c(C#N)cnc2c(Cl)cc(N[C@H](c3cn(C4CC4)nn3)c3cccn4nccc34)cc12` [Example 422, (S)-8-chloro-6-(((1-cyclopropyl-1H-1,2,3-triazol-4-yl)(pyrazolo[1,5-a]pyridin-4-yl)methyl)amino)-4-(neopentylamino)-quinoline-3-carbonitrile] was tested, and the EC50 (TNFα; [1]) was 57 nM and the IC50 (Human Cot; [2]) was 2 nM.

Compound `CC(C)(C)CNc1c(C#N)cnc2c(C#N)cc(N[C@H](c3cn(C4(C)CC4)nn3)c3cccc4ncccc34)cc12` [Example 578, (S)-6-(((1-(1-methylcyclopropyl)-1H-1,2,3-triazol-4-yl)(quinolin-5-yl)methyl)amino)-4-(neopentylamino)quinoline-3,8-dicarbonitrile] has an EC50 (TNFα; [1]) of 32 nM and an IC50 (Human Cot; [2]) of 2 nM.

`CC(C)(C)CNc1c(C#N)cnc2c(Cl)cc(N[C@H](c3cn(C4CC4)nn3)c3cccn4cncc34)cc12` [Example 446, (S)-8-chloro-6-(((1-cyclopropyl-1H-1,2,3-triazol-4-yl)(imidazo[1,5-a]pyridin-8-yl)methyl)amino)-4-(neopentylamino)-quinoline-3-carbonitrile] showed an EC50 (TNFα; [1]) of 156 nM and an IC50 (Human Cot; [2]) of 3 nM.
